Results as given in ChEMBL document CHEMBL1142543, “Arabinose 5-phosphate analogues as mechanistic probes for Neisseria meningitidis 3-deoxy-D-manno-octulosonate 8-phosphate synthase” (Bioorg Med Chem, 2008).

Test system: Neisseria meningitidis MC58
Assay: Activity at Neisseria meningitidis B MC58 (ATCC BAA355) recombinant 3-deoxy-D-manno-octulosonate 8-phosphate synthase expressed in Escherichia coli BL21 (DE3)

SMILES	kcat [s⁻¹]
O=C[C@@H](O)[C@H](O)[C@@H](O)COP(=O)(O)O	1.1
O=C[C@@H](O)[C@H](O)[C@H](O)COP(=O)(O)O	2.7
